Where no end group is shown, it is not given here.
What was measured:
[1] = test system: human keratinocytes cells (HaCaT cells)
Experimental: (§1) Rat pulmonary artery smooth muscle cells (RPASMCs, primary cells separated by our laboratory) and human keratinocytes cells (HaCaT cells, Mingjing Biology, Shanghai, China) were cultured in high-glucose Dulbecco’s Modified Eagle Medium (DMEM), supplemented with 10% fetal bovine serum (FBS). Human umbilical vein endothelial cells (HUVECs, BeNa Culture Collection, Kunshan City, China) were cultured in the MCDB131 medium supplemented with 20% FBS and growth factor additives. Human embryonic kidney cells (293, Procell Life Science & Technology Co., Ltd., Wuhan, China) were cultured in minimum Eagle’s medium (MEM) supplemented with 10% FBS. All cells were cultured at 37 °C, with 5% CO2. All animals used in this study were supplied by the Medical Animal Test Center of Xi’an Jiaotong University and study protocols were approved by the Institutional Animal Care and Use Committee of the Ethics Committee of Health Science Center, Xi’an Jiaotong University (Ethical approval code: 2017-609).
(§2) Cells were inoculated in 96-well plates at 5 × 10^3 cells/well and cultured at 37 °C under 5% CO2. The supernatant was removed, and the cells were washed three times with PBS. Next, 100 μL of fresh culture medium containing different antimicrobial peptides was added (peptide concentration: 0, 1.0, 2.0, 5.0, 10, 25, 50 and 100 μM). Each concentration was repeated five times. Then, 10 μL of CCK-8 reagent was added 48 h later, followed by another two hours of incubation. The absorbance at 450 nm was measured using the same Multilabel Reader. Cellular growth viability was calculated using the following equation:Viability (%) = (mean absorbance value of treatment group − mean absorbance value of blank group group)/(mean absorbance value of control group − mean absorbance value of blank group) × 100. (2)

[2] = test system: Human embryonic kidney cells (293)
Experimental: as §1, §2

[3] = test system: Rat pulmonary artery smooth muscle cells (RPASMCs)
Experimental: as §1, §2

[4] = test system: Human umbilical vein endothelial cells (HUVECs)
Experimental: as §1, §2

[5] = test system: C. albicans; details: mouse, in vivo, 2 h, 50 μM
Experimental: (§3) The scalded mice models combined with SSTIs by MRSA or C. albicans were constructed. Fifty normal male Kunming mice (5–6 weeks old) weighing ~25 g were anesthetized by isoflurane using a small animal anesthesia machine (R640, RWD Life Science, China). After skin preparation and disinfection, a custom-made circular iron (diameter: 8 mm) (shown in Figure S4) was applied to both sides of the spine of the mice for 10 s at 300 °C, resulting in four scalded wounds. Mice were injected subcutaneously with 5 mg/kg meloxicam (Aladdin, Shanghai, China) for four days (once per day) after scalding for pain relief. Two days after scalding, the skin tissues of the scalded areas were removed carefully, and about 30 μL of 1 × 10^7 CFU/mL of MRSA or C. albicans was applied evenly onto the surfaces of the wounds. The mice were returned to the original feeding environment after the microbial fluid was completely absorbed (1.5–2 h), with two mice per cage. Corncob granules with SPF level were used as padding.
(§4) Two days after microbe inoculating, the scalded wounds of each mouse were divided into four groups randomly. […] The mice were returned to the original feeding environment after the solutions were completely absorbed. The treatment lasted for 12–16 days. Photographs of the wound areas were taken every two days using an iPhone 11 and the wound areas were measured every two days using Image J software (152-win-java8, Bethesda, MD, USA). The average wound areas on day two were used as the reference (100% unhealed) to normalized wound areas. Skin tissues of the wound areas were removed carefully at different time points (n = 5 for each time point) and weighted in a sterile environment. For MRSA infection, 10 mg of the wound tissues was dispersed into 1000 μL of sterile saline solution and the tissue solution was ground into suspension in a tissuelyser (Tissuelyser LT, Servicebio). Then, the tissue suspension was diluted with sterile saline solution 10 times and plated on MHA with a sample volume of 50 μL. For C. albicans infection, 10 mg of the wound tissues was dispersed into 200 μL of sterile saline solution and the tissue solution was also ground into suspension in the tissuelyser. The tissue suspension was then plated on PDA directly with a sample volume of 20 μL. After culturing overnight, the colonies were counted using Image J software or human eyes. In addition, the skin tissues of the wound area were removed carefully at different time points and dispersed into a 4% paraformaldehyde solution for further use.
(§5) The hematoxylin and eosin staining in this study was carried out by Servicebio (Wuhan, China). Briefly, the obtained skin tissues were soaked in 4% paraformaldehyde solution (Beyotime, China) and fixed for more than 24 h. Then, they were dehydrated and embedded with paraffin, and tissue sections having thicknesses of 4 μm were prepared. After deparaffinization and rehydration, hematoxylin and eosin staining was performed.

[6] = test system: MRSA; details: mouse, in vivo, 2 h, 50 μM
Experimental: as §3, §4, §5

## GFLFKLIPKAIKKLISKFK [GK-19]
[1]
  cytotoxicity at the effective antimicrobial concentration, HaCaT: almost no apoptotic cells
[1]; 48 h, 100 μM
  cells surviving, HaCaT: more than 42%
[2]
  cytotoxicity at the effective antimicrobial concentration, 293 cells: almost no apoptotic cells
[2]; 100 µM
  cell viability, 293 cells: less than 20%
[3]
  cytotoxicity at the effective antimicrobial concentration, RPASMCs: almost no apoptotic cells
[3]; 100 µM
  cell viability, RPASMCs: less than 20%
[4]
  cytotoxicity at the effective antimicrobial concentration, HUVECs: almost no apoptotic cells
[4]; 100 µM
  cell viability, HUVECs: less than 20%
[5]
  C. albicans suppressed (inhibition rate) at day eight compared with saline solution groups: more than 97%
[6]
  MRSA suppressed (inhibition rate) at day eight compared with saline solution groups: more than 95%
